Literature values, collected in patent US8079695B2, “Inkjet inks having improved print uniformity” (Eastman Kodak Company, priority 2008, dated 2011).

Settings: measured and predicted values (handbooks or ACD/LABS v8.14); lowest pKa given for di-carboxylic acids

| SMILES | pKa |
| --- | --- |
| C=CC(=O)NC(C)(C)CS(=O)(=O)O [2-acrylamido-2-methylpropane sulfonic acid] | 1.7 |
| C=C(C)C(=O)OCCS(=O)(=O)O [2-propenoic acid, 2-methyl-, 2-sulfoethyl ester] | 1.0 |
| C=CC(=O)O [Acrylic acid] | 4.3 |
| C=CCS(=O)(=O)O [Allyl sulfonic acid] | 1.5 |
| O=C(O)/C=C/Cl [trans-chloroacrylic acid] | 3.7 |

Further lines, results first:

| pKa | SMILES |
| --- | --- |
| 3.1 | C/C(=C\C(=O)O)C(=O)O [Mesaconic acid] |
| 4.7 | C=C(C)C(=O)O [Methacrylic acid (MA), Methacrylic acid] |
| 3.3 | C=C(Cl)C(=O)O [α-chloroacrylic acid] |
